In patent US10640498B2, “Compounds” (MISSION THERAPEUTICS LIMITED, priority 2016, dated 2020):

Molecular target: USP30 (Homo sapiens (Human), UniProt Q70CQ3)
Test: USP30 biochemical IC50 assay (fluorescence polarisation)
Conditions: enzyme and compound incubated 30 min at room temp; TAMRA labelled peptide-ubiquitin substrate 50 nM; read after 2 hr incubation; read-out: IC50 range
Method: USP30 Biochemical IC50 Assay
Dilution plates were prepared at 21 times the final concentration ([…] for a final concentration of 100 μM) in 50% DMSO in a 96-well polypropylene V-bottom plate (Greiner #651201). A typical 8-point dilution series to be 100, 30, 10, 3, 1, 0.3, 0.1, […].
Reactions were performed in duplicate in black 384 well plates (small volume, Greiner 784076) in a final reaction volume of 21 μl. Either 1 μl of 50% DMSO or diluted compound was added to the plate. USP30 was diluted in reaction buffer (40 mM Tris, pH 7.5, 0.005% Tween 20, 0.5 mg/ml BSA, 5 mM beta-mercaptoethanol) to the equivalent of 0.05 µl/well and 10 μl of diluted USP30 was added to the compound. Enzyme and compound were incubated for 30 min at room temp. Reactions were initiated by the addition of 50 nM of TAMRA labelled peptide linked to ubiquitin via an iso-peptide bond as fluorescence polarisation substrate. Reactions were read immediately after addition of substrate and following a 2 hr incubation at room temperature. Readings were performed on a Pherastar Plus (BMG Labtech). λ Excitation 540 nm; λ Emission 590 nm.

Sequence of USP30 (Q70CQ3 57-517): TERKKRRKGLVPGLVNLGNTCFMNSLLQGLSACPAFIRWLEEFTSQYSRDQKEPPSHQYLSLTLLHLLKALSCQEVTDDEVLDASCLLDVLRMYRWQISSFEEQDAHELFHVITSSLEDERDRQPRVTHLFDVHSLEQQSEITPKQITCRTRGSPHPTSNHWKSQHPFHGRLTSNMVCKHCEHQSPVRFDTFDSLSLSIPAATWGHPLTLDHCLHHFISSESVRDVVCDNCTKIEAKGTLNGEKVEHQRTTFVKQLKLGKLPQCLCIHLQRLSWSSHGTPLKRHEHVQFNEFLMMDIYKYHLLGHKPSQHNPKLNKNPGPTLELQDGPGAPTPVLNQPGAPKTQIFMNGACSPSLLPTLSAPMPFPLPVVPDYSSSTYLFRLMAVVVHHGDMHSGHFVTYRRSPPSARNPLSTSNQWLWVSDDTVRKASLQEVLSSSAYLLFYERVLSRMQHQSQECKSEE

Row | Structure (SMILES) | IC50
1 | CN1CCN(C(=O)c2ccc(-c3ccc4c(c3)CCN4C(=O)C3(F)CCN(C#N)C3)cc2)CC1 (centres unmarked) [Example 38, 3-Fluoro-3-(5-(4-(4-methylpiperazine-1-carbonyl)phenyl)indoline-1-carbonyl)pyrrolidine-1-carbonitrile] | 1000 to 10000 nM
2 | Cn1ncc2cc(-c3ccc4c(c3)CCN4C(=O)C3(F)CCN(C#N)C3)ccc21 (centres unmarked) [Example 39, 3-Fluoro-3-(5-(1-methyl-1H-indazol-5-yl)indoline-1-carbonyl)pyrrolidine-1-carbonitrile] | 100 to 1000 nM
3 | Cc1ccc(F)c(-c2ccc3c(c2)CCN3C(=O)C2(F)CCN(C#N)C2)c1 (centres unmarked) [Example 40, 3-Fluoro-3-(5-(2-fluoro-5-methylphenyl)indoline-1-carbonyl)pyrrolidine-1-carbonitrile] | < 100 nM
4 | Cc1ccc2[nH]ncc2c1-c1ccc2c(c1)CCN2C(=O)C1(F)CCN(C#N)C1 (centres unmarked) [Example 41, 3-Fluoro-3-(5-(5-methyl-1H-indazol-4-yl)indoline-1-carbonyl)pyrrolidine-1-carbonitrile] | 100 to 1000 nM
5 | N#CN1CCC(F)(C(=O)N2CCc3cc(-c4cccc(NS(=O)(=O)C5CC5)c4)ccc32)C1 (centres unmarked) [Example 42, N-(3-(1-(1-Cyano-3-fluoropyrrolidine-3-carbonyl)indolin-5-yl)phenyl)cyclopropanesulfonamide] | 100 to 1000 nM
6 | COc1ccc(-c2ccc3c(c2)CCN3C(=O)C2(F)CCN(C#N)C2)cn1 (centres unmarked) [Example 43, 3-Fluoro-3-(5-(6-methoxypyridin-3-yl)indoline-1-carbonyl)pyrrolidine-1-carbonitrile] | 100 to 1000 nM
7 | CCN(C(=O)[C@@H]1CCN(C#N)C1)c1ccc(-c2ccc(C#N)cc2)cn1 [Example 44, (R)-1-Cyano-N-(5-(4-cyanophenyl)pyridin-2-yl)-N-ethylpyrrolidine-3-carboxamide] | 1000 to 10000 nM
8 | CN(Cc1nc2ccccc2s1)C(=O)C1CCN(C#N)C1 (centres unmarked) [Example 45, N-(Benzo[d]thiazol-2-ylmethyl)-1-cyano-N-methylpyrrolidine-3-carboxamide] | 1000 to 10000 nM
9 | CN(Cc1cc(-c2ccccc2)no1)C(=O)C1CCN(C#N)C1 (centres unmarked) [Example 46, 1-Cyano-N-methyl-N-((3-phenylisoxazol-5-yl)methyl)pyrrolidine-3-carboxamide] | 1000 to 10000 nM
10 | CN(Cc1csc(-c2ccccc2)n1)C(=O)C1CCN(C#N)C1 (centres unmarked) [Example 47, 1-Cyano-N-methyl-N-((2-phenylthiazol-4-yl)methyl)pyrrolidine-3-carboxamide] | 100 to 1000 nM
11 | N#CN1CCC2(CCN(c3cccc(-c4ccccc4)c3)C2=O)C1 (centres unmarked) [Example 49, 7-([1,1′-Biphenyl]-3-yl)-6-oxo-2,7-diazaspiro[4,4]nonane-2-carbonitrile] | 100 to 1000 nM
12 | CCc1cccc(-c2cccc3c2CCN3C(=O)[C@@H]2CCN(C#N)C2)c1 [Example 50, (R)-3-(4-(3-Ethylphenyl)indoline-1-carbonyl)pyrrolidine-1-carbonitrile] | 100 to 1000 nM
13 | N#CN1CCC(C(=O)N2CCc3nc(-c4ccccc4)ccc32)C1 (centres unmarked) [Example 51, 3-(5-Phenyl-2,3-dihydro-1H-pyrrolo[3,2-b]pyridine-1-carbonyl)pyrrolidine-1-carbonitrile] | 1000 to 10000 nM
14 | N#CN1CC[C@@](F)(C(=O)N2CCc3cc(-c4ccccc4)ccc32)C1 [Example 53, (S)-3-Fluoro-3-(5-phenylindoline-1-carbonyl)pyrrolidine-1-carbonitrile] | 100 to 1000 nM
15 | N#CN1CC[C@](F)(C(=O)N2CCc3cc(-c4ccccc4)ccc32)C1 [Example 54, (R)-3-Fluoro-3-(5-phenylindoline-1-carbonyl)pyrrolidine-1-carbonitrile] | 100 to 1000 nM
16 | N#CN1CC[C@@](F)(C(=O)N2CCc3cc(-c4cccc(Cl)c4)cnc32)C1 [Example 55, (S)-3-(5-(3-Chlorophenyl)-2,3-dihydro-1H-pyrrolo[2,3-b]pyridine-1-carbonyl)-3-fluoropyrrolidine-1-carbonitrile] | 100 to 1000 nM
17 | N#CN1CC[C@](F)(C(=O)N2CCc3cc(-c4cccc(Cl)c4)cnc32)C1 [Example 56, (R)-3-(5-(3-Chlorophenyl)-2,3-dihydro-1H-pyrrolo[2,3-b]pyridine-1-carbonyl)-3-fluoropyrrolidine-1-carbonitrile] | < 100 nM
18 | CC(C)Cn1nccc1-c1ccc2c(c1)CCN2C(=O)C1(F)CCN(C#N)C1 (centres unmarked) [Example 58, 3-Fluoro-3-(5-(1-isobutyl-1H-pyrazol-5-yl)indoline-1-carbonyl)pyrrolidine-1-carbonitrile] | 1000 to 10000 nM
19 | N#CN1CCC(F)(C(=O)N2CCc3cc(-c4cnn(Cc5ccccc5)c4)ccc32)C1 (centres unmarked) [Example 59, 3-(5-(1-Benzyl-1H-pyrazol-4-yl)indoline-1-carbonyl)-3-fluoropyrrolidine-1-carbonitrile] | 1000 to 10000 nM
20 | N#CN1CC[C@H](C(=O)N2CCc3cc(-c4cccc5[nH]ncc45)cnc32)C1 [Example 60, (S)-3-(5-(1H-indazol-4-yl)-2,3-dihydro-1H-pyrrolo[2,3-b]pyridine-1-carbonyl)-pyrrolidine-1-carbonitrile] | 100 to 1000 nM
21 | N#CN1CC[C@@H](C(=O)N2CCc3cc(-c4cccc5[nH]ncc45)cnc32)C1 [Example 61, (R)-3-(5-(1H-Indazol-4-yl)-2,3-dihydro-1H-pyrrolo[2,3-b]pyridine-1-carbonyl)-pyrrolidine-1-carbonitrile] | 1000 to 10000 nM
22 | N#CN1CCC(F)(C(=O)N2CCc3cc(-c4ccnn4Cc4ccccn4)ccc32)C1 (centres unmarked) [Example 62, 3-Fluoro-3-(5-(1-(pyridin-2-ylmethyl)-1H-pyrazol-5-yl)indoline-1-carbonyl)pyrrolidine-1-carbonitrile] | 1000 to 10000 nM
23 | N#CN1CCC(F)(C(=O)N2CCc3cc(-c4ccnn4Cc4cccnc4)ccc32)C1 (centres unmarked) [Example 63, 3-Fluoro-3-(5-(1-(pyridin-3-ylmethyl)-H-pyrazol-5-yl)indoline-1-carbonyl)pyrrolidine-1-carbonitrile] | 1000 to 10000 nM
24 | N#CN1CCC(F)(C(=O)N2CCc3cc(-c4ccnn4Cc4ccccc4Cl)ccc32)C1 (centres unmarked) [Example 64, 3-(5-(1-(2-Chlorobenzyl)-1H-pyrazol-5-yl)indoline-1-carbonyl)-3-fluoropyrrolidine-1-carbonitrile] | 1000 to 10000 nM
25 | N#CN1CCC(F)(C(=O)N2CCc3cc(-c4ccnn4Cc4cccc(Cl)c4)ccc32)C1 (centres unmarked) [Example 65, 3-(5-(1-(3-Chlorobenzyl)-1H-pyrazol-5-yl)indoline-1-carbonyl)-3-fluoropyrrolidine-1-carbonitrile] | 100 to 1000 nM
26 | N#CN1CCC(F)(C(=O)N2CCc3cc(-c4ccnn4Cc4ccc(Cl)cc4)ccc32)C1 (centres unmarked) [Example 66, 3-(5-(1-(4-Chlorobenzyl)-1H-pyrazol-5-yl)indoline-1-carbonyl)-3-fluoropyrrolidine-1-carbonitrile] | 100 to 1000 nM
27 | N#CN1CCC(F)(C(=O)N2CCc3cc(C(=O)NCc4ccccc4)ccc32)C1 (centres unmarked) [Example 67, N-Benzyl-1-(1-cyano-3-fluoropyrrolidine-3-carbonyl)indoline-5-carboxamide] | 1000 to 10000 nM
28 | CCc1cccc(-c2cc(C(=O)NC)cc3c2CCN3C(=O)[C@@H]2CCN(C#N)C2)c1 [Example 68, (R)-1-(1-Cyanopyrrolidine-3-carbonyl)-4-(3-ethylphenyl)-N-methylindoline-6-carboxamide] | 100 to 1000 nM
29 | CNC(=O)c1cc(-c2ccccc2)c2c(c1)N(C(=O)[C@@H]1CCN(C#N)C1)CC2 [Example 69, (R)-1-(1-Cyanopyrrolidine-3-carbonyl)-N-methyl-4-phenylindoline-6-carboxamide] | 1000 to 10000 nM
